Experimental data published in patent publication EP2667887B1, “PHARMACEUTICAL COMPOSITION COMPRISING THE PEPTIDE GLU-ASP-GLY AND USE FOR TREATING HELICOBACTER PYLORI INDUCED GASTRODUODENAL DISEASES” («Garmonia», Ltd., priority 2011, dated 2012).

Experiments:
[1] = test system: human gastric epithelium cells SGC7901; assay: Effect on Helicobacter pylori-induced mitochondrial mechanisms of apoptosis in gastric epitheliocytes (mito-GFP confocal microscopy); assay type: cell-based; conditions: Klacid 500 ng/mL as positive control, same conditions as peptide 10 µM
Method: To evaluate the biological activity and effects of peptide H-Glu-Asp-Gly-OH on mitochondrial mechanisms of apoptosis in gastric epitheliocytes, induced by Helicobacter pylori germs, human gastric epithelium cells SGC7901 were studied. The cells were cultivated at 37°C in a damp incubation medium containing 50 mL/L CO2 in DMEM (Dulbecco's Modified Eagle's Medium, ICN Biomedicals) and 10% calf embryonic serum. A preliminary separation of cells for passaging was carried out in the ratio of 1:3-1:5 using a mixture of 0.125% trypsin, 0.02M EDTA (ethylenediaminetetraacetic acid), 0.02% glucose dissolved in a phosphate buffer. The cells were placed on a 24-well plate in the amount of 10^6 cells per well. The cells were passaged in a cultivation medium for 5 days and then taken for study.
On the 5th day after the beginning of cell passaging the peptide H-Glu-Asp-Gly-OH in the dose of 10 µM was administered in the cultivation medium, and in 30 minutes of incubation the cells were taken for study. Klacid antibiotic (clarithromycin, Abbott) in the dose of 500 ng/mL was administered to the cultures in the same conditions as positive control. […]
The status of isolated mitochondria was evaluated using immunofluorescent confocal laser microscopy. […]
Confocal microscopy of mitochondria with optical density evaluation was performed in an inverted confocal microscope Olympus Fluoview CM FV300-IX70 using an apochromatic lens 606 UPlan (Olympus). A 488 nm excitation wave of argon laser was used in each chamber to specify mito-GFP fluorescence that verifies the structure of mitochondria.

modeled ulcer = assay: Morphology study of the induced gastric ulcer (cysteamine-HCL + Helicobacter pylori); assay type: in vivo, Sprague Dawley rats; conditions: treatment daily for 5 days, Klacid 10 mg intramuscularly
Method: The study was carried out on 90 male Sprague Dawley rats (180-220 g) randomly subdivided into 9 groups (10 animals per group): • Group 1 - intact rats (saline solution) • Group 2 - modeled ulcer + saline solution • Group 3 (6 subgroups) - modeled ulcer + H-Glu-Asp-Gly-OH • Group 4 - modeled ulcer + Klacid antibiotic
Ulcer was modeled by three-time administration (in 4 hours) in the rat stomach of cysteamine-HCL (Aldrich, Milwannee, WI) by means of a probe in the dose of 25 mg per 100 g of body weight. The ulcer, approximately 28 mm^2 in size, appeared at the boundary between antral and fundal segments of the stomach 12 hours after the last administration. Simultaneously with the first administration of cysteamine-HCL a Helicobacter pylori culture (Curtin Matheson Scientific Inc, strain Cag J117, 100 microbial cells) was administered in the rat stomach through the same probe.
(§1) A means on the basis of the pharmaceutical composition comprising the studied peptide H-Glu-Asp-Gly-OH was administered subcutaneously in the dose of 1 µg per kg of animal body weight (group 3a), 2,5 µg per kg of body weight (group 3b) and 10 µg per kg of body weight (group 3c) in 0,5 ml of saline solution daily, for 5 days from the occurrence of the stomach ulcer.
as §1, with “The means” for “A means”, “administered intragastrically (through a probe)” for “administered subcutaneously”, “(group 3d),” for “(group 3a),”, “(group 3e)” for “(group 3b)”, “(group 3f)” for “(group 3c)”
Antibiotic Klacid (clarithromycin, Abbott) was administered intramuscularly in the dose of 10 mg in 1 ml of saline solution daily for 5 days from the occurrence of the stomach ulcer.
Material for study was taken from ulcer edge on the 7th day (for western blot assay and polymerase chain reaction in real time - RT-PCR), as well as on the 7th, 15th and 21st day for morphology study and confocal microscopy.
For a morphology study, pieces of gastric mucous membrane from the ulcer edge were fixed in 10% neutral formalin (pH 7.2), then the material was dried out in a Leica TP1020 automatic station (Leica) and covered with paraffin. 5 µm thick paraffin slices were placed on object plates covered with a poly-L-lysine film (Sigma). For a visual study the slices were stained with hematoxylin and eosin, as well as with picrofuxin by the van Gison method.

CC[C@H]1OC(=O)[C@H](C)[C@@H](O[C@H]2C[C@@](C)(OC)[C@@H](O)[C@H](C)O2)[C@H](C)[C@@H](O[C@@H]2O[C@H](C)C[C@H](N(C)C)[C@H]2O)[C@](C)(OC)C[C@@H](C)C(=O)[C@H](C)[C@@H](O)[C@]1(C)O [Klacid, clarithromycin]
biological activity (prevention of Helicobacter pylori-induced mitochondrial apoptosis disorder) relative to the peptide composition [1]: comparable in terms of efficiency | ulcer pathomorphosis, 7th day (modeled ulcer; 7th day after ulcer induction, peptide 1, 2,5, 10 µg/kg subcutaneously or intragastrically): largely similar to the changes in Group 3 | ulcer pathomorphosis, 15th day (modeled ulcer; 15th day after ulcer induction, peptide 1, 2,5, 10 µg/kg subcutaneously or intragastrically): The same changes were observed | ulcer pathomorphosis, 21st day (modeled ulcer; 21st day after ulcer induction, peptide both methods of administration and three dosages): caused the same changes
